The numbers were not newly measured in patent publication US20090011059A1, “Ginger Extract For Inhibiting Human Drug Transporters” (priority 2005, published 2009), which cites them from elsewhere.

Conditions in the first series: not given
`CC(=O)O[C@@]12CO[C@@H]1C[C@H](O)[C@@]1(C)C(=O)[C@H](O)C3=C(C)[C@@H](OC(=O)[C@H](O)[C@@H](NC(=O)OC(C)(C)C)c4ccccc4)C[C@@](O)([C@@H](OC(=O)c4ccccc4)[C@H]21)C3(C)C` [Docetaxel]: the oral availability was 8%.
On to `CC[C@H](C)C(=O)O[C@H]1C[C@@H](C)C=C2C=C[C@H](C)[C@H](CC[C@@H]3C[C@@H](O)CC(=O)O3)[C@H]21` [Lovastatin], for which the oral availability is 4%.
Turning to `CO[C@H]1C[C@@H]2CC[C@@H](C)[C@@](O)(O2)C(=O)C(=O)N2CCCC[C@H]2C(=O)O[C@H]([C@H](C)C[C@@H]2CC[C@@H](O)[C@H](OC)C2)CC(=O)[C@H](C)/C=C(\C)[C@@H](O)[C@@H](OC)C(=O)[C@H](C)C[C@H](C)/C=C/C=C/C=C/1C` [Sirolimus], the oral availability is listed as 15%.
Regarding `C=CC[C@@H]1/C=C(\C)C[C@H](C)C[C@H](OC)[C@H]2O[C@@](O)(C(=O)C(=O)N3CCCC[C@H]3C(=O)O[C@H](/C(C)=C/[C@@H]3CC[C@@H](O)[C@H](OC)C3)[C@H](C)[C@@H](O)CC1=O)[C@H](C)C[C@@H]2OC` [Tacrolimus], the oral availability is on record as 16%.
As for `CC[C@@]1(O)C(=O)OCc2c1cc1n(c2=O)Cc2cc3c(CN(C)C)c(O)ccc3nc2-1` [Topotecan], the oral availability is on record as 42%.

For another series the following is noted: in vivo.
Take vitamin E: the “increase of the plasma exposure of cyclosporin A” value is “roughly two-fold”.
